Patent publication US20260193293A1, “PEPTIDES CAPABLE OF INHIBITING PROTEIN-PROTEIN INTERACTIONS AT GABAB1A SUBUNIT AND USES THEREOF” (UNIVERSITY OF COPENHAGEN, priority 2022, published 2026)
“And” between values parts separate entries of the source, which are not always exact repeats. Equal values may be shown once. Read-outs that look alike come from different tables or passages of the source. Non-standard residues stand in square brackets, D forms with d. Residues, ends and D or L forms follow the SMILES beside them. *: point of attachment. Bn = c1ccc(C*)cc1; Sar = CNCC(=O)O

Molecular target: Sushi domains (SD1/2) protein
Assay: Fluorescence polarization (FP) competition assay with AJAP-1probe, calculated Ki
Format: binding
Outline: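 Competition against 25 nM TAMRA-labelled peptide probe binding SD1/2, in PBS pH 7.4 with 1% BSA at rt, read at 530/580 nm. IC50 from sigmoidal dose-response fits, at least triplicate; Ki calculated from IC50 using probe Kd from saturation binding.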

[1] = Table 1, affinity maturation, mean ± SEM, n ≥ 3, read-out: Ki
[2] = Table 13, peptides for affinity maturation, read-out: Ki (nM) mean ± SEM
[3] = Table 16, ncAAs incorporated peptides, read-out: Ki (nM) mean ± SEM

Row | Compound | Ki [1] | Ki [2] | Ki [3] | further results
1 | CC[C@H](C)[C@H](NC(=O)[C@H](Cc1ccccc1)NC(=O)[C@H](CCC(=O)O)NC(=O)[C@@H](NC(=O)[C@H](CCC(=O)O)NC(C)=O)[C@@H](C)O)C(=O)N[C@@H](CC(=O)O)C(=O)N[C@@H](Cc1c[nH]c2ccccc12)C(=O)NCC(=O)N1CCC[C@H]1C(=O)N[C@H](C(=O)NCC(=O)N[C@@H](CC(=O)O)C(=O)N[C@@H](CCC(=O)O)C(=O)N[C@@H](CC(=O)O)C(N)=O)[C@@H](C)O [Peptide 26, Ac-ETEFIDWGPTGDED-NH2] (Ac-ETEFIDWGPTGDED-NH2) | – | – | – | Ki (Table 11, deep mutational scanning validation variants of AJAP-1WT, read-out: Ki (nM) mean ± SEM): 9 ± 1 nM; Ki (purified peptides, read-out: Ki): 9 nM; fold improved affinity relative to the wild type (relative to AJAP-1WT): 3 fold; Ki (unit inferred, read-out: Ki): 9 nM
2 | CC[C@H](C)[C@H](NC(=O)[C@H](Cc1c[nH]c2ccccc12)NC(=O)[C@H](CO)NC(=O)[C@H](CC(=O)O)NC(=O)[C@H](CC(=O)O)NC(=O)[C@H](CCC(=O)O)NC(C)=O)C(=O)N[C@@H](Cc1c[nH]c2ccccc12)C(=O)N[C@@H](Cc1c[nH]c2ccccc12)C(=O)N[C@@H](Cc1ccc(O)cc1)C(=O)NCC(=O)N[C@@H](C)C(=O)N[C@@H](CC(=O)O)C(=O)N[C@H](C(=O)N[C@@H](CC(=O)O)C(N)=O)[C@@H](C)O [Peptide 28] (Ac-EDDSWIWWYGADTD-NH2) | 18 ± 1 nM | 18 ± 1 nM | – | –
3 | CC[C@H](C)[C@H](NC(=O)[C@H](Cc1ccc(OCc2ccccc2)cc1)NC(=O)[C@H](CC(=O)O)NC(=O)[C@H](CC(=O)O)NC(=O)[C@H](CC(=O)O)NC(=O)[C@H](CCC(=O)O)NC(C)=O)C(=O)N[C@@H](CC(=O)O)C(=O)N[C@@H](Cc1c[nH]c2ccccc12)C(=O)N[C@@H](Cc1ccc(O)cc1)C(=O)N[C@@H](CC(=O)O)C(=O)N[C@@H](CO)C(=O)N[C@@H](CC(=O)O)C(=O)N[C@@H](CC(=O)O)C(=O)N[C@@H](CC(=O)O)C(N)=O [Peptide 33] | 9.3 ± 0.2 nM | – | 9.3 ± 0.2 nM | –
4 | CCOc1ccc(C[C@H](NC(=O)[C@H](CC(=O)O)NC(=O)[C@H](CC(=O)O)NC(=O)[C@H](CC(=O)O)NC(=O)[C@H](CCC(=O)O)NC(C)=O)C(=O)N[C@H](C(=O)N[C@@H](CC(=O)O)C(=O)N[C@@H](Cc2c[nH]c3ccccc23)C(=O)NCC(=O)N2CCC[C@H]2C(=O)N[C@H](C(=O)N[C@@H](CO)C(=O)N[C@@H](CC(=O)O)C(=O)N[C@@H](CC(=O)O)C(=O)N[C@@H](CC(=O)O)C(N)=O)[C@@H](C)O)[C@@H](C)CC)cc1 [Peptide 34] (Ac-EDDDY(Et)IDWGPTSDDD-NH2) | 6.5 ± 0.4 nM | – | 6.5 ± 0.4 nM | –
5 | CC[C@H](C)[C@H](NC(=O)[C@H](Cc1ccc(OCc2ccccc2)cc1)NC(=O)[C@H](CC(=O)O)NC(=O)[C@H](CC(=O)O)NC(=O)[C@H](CC(=O)O)NC(=O)[C@H](CCC(=O)O)NC(C)=O)C(=O)N[C@@H](CC(=O)O)C(=O)N[C@@H](Cc1c[nH]c2ccccc12)C(=O)NCC(=O)N1CCC[C@H]1C(=O)N[C@H](C(=O)N[C@@H](CO)C(=O)N[C@@H](CC(=O)O)C(=O)N[C@@H](CC(=O)O)C(=O)N[C@@H](CC(=O)O)C(N)=O)[C@@H](C)O [Peptide 35] (Ac-EDDDY(Bn)IDWGPTSDDD-NH2) | 9.5 ± 0.3 nM | – | 9.5 ± 0.3 nM | –
6 | CC(=O)N[C@@H](CCC(=O)O)C(=O)N[C@@H](CCC(=O)O)C(=O)N[C@@H](CC(=O)O)C(=O)N[C@@H](CC(=O)O)C(=O)N[C@@H](CO)C(=O)N[C@@H](CC(=O)O)C(=O)N[C@H](C(=O)N[C@@H](Cc1c[nH]c2ccccc12)C(=O)N[C@@H](Cc1c[nH]c2ccccc12)C(=O)NCC(=O)NCC(=O)N[C@@H](C)C(=O)N[C@@H](CC(=O)O)C(=O)N[C@H](C(=O)N[C@@H](CC(=O)O)C(=O)N[C@@H](Cc1ccc(O)cc1)C(=O)N[C@@H](C)C(=O)N[C@@H](CC(=O)O)C(N)=O)[C@@H](C)O)C(C)C [Peptide 36] (Ac-EEDDSDVWWGGADTDYAD-NH2) | – | – | – | Ki (Table 3, SPOT hit validation and previously reported peptides, read-out: Ki (nM) mean ± SEM): 244 ± 13 nM; Ki (Table 4, truncation and elongation scans of APP epitope, listed as EEDDSDVWWGGADTDYAD, read-out: Ki (nM) mean ± SEM): 244 nM and 233 nM
7 | CC[C@H](C)[C@H](NC(=O)[C@H](Cc1ccccc1)NC(=O)[C@H](CCC(=O)O)NC(=O)[C@@H](NC(=O)[C@H](CCC(=O)O)NC(C)=O)[C@@H](C)O)C(=O)N[C@@H](C)C(=O)N[C@@H](Cc1c[nH]c2ccccc12)C(=O)N[C@@H](Cc1ccc(O)cc1)C(=O)NCC(=O)N[C@@H](C)C(=O)N[C@@H](CC(=O)O)C(=O)N[C@H](C(=O)N[C@@H](CC(=O)O)C(N)=O)[C@@H](C)O [Peptide 37] (Ac-ETEFIAWYGADTD-NH2) | 95 ± 5 nM | 95 ± 5 nM | – | –
8 | CC[C@H](C)[C@H](NC(=O)[C@H](Cc1ccccc1)NC(=O)[C@H](CCC(=O)O)NC(=O)[C@@H](NC(=O)[C@H](CCC(=O)O)NC(C)=O)[C@@H](C)O)C(=O)N[C@@H](C)C(=O)N[C@@H](Cc1c[nH]c2ccccc12)C(=O)NCC(=O)N(C)CC(=O)N[C@H](C(=O)NCC(=O)N[C@@H](CC(=O)O)C(=O)N[C@@H](CCC(=O)O)C(=O)N[C@@H](CC(=O)O)C(N)=O)[C@@H](C)O [Peptide 38] (Ac-ETEFIAWG[Sar]TGDED-NH2) | 32 ± 2 nM | 32 ± 2 nM | – | Ki (Table 8, Ala-, D-amino acids and N-methylation scans of AJAP-1WT, read-out: Ki (nM) mean ± SEM): 32 ± 2 nM

The next lines start with results.

Row | Ki [1] | Ki [2] | Ki [3] | Compound | further results
9 | 16 ± 1 nM | 16 ± 1 nM | – | CC[C@H](C)[C@H](NC(=O)[C@H](Cc1c[nH]c2ccccc12)NC(=O)[C@H](CO)NC(=O)[C@H](CC(=O)O)NC(=O)[C@H](CC(=O)O)NC(=O)[C@H](CCC(=O)O)NC(C)=O)C(=O)N[C@@H](Cc1c[nH]c2ccccc12)C(=O)N[C@@H](Cc1c[nH]c2ccccc12)C(=O)NCC(=O)N1CCC[C@H]1C(=O)N[C@H](C(=O)NCC(=O)N[C@@H](CC(=O)O)C(=O)N[C@@H](CCC(=O)O)C(=O)N[C@@H](CC(=O)O)C(N)=O)[C@@H](C)O [Peptide 27, Ac-EDDSWIWWGPTGDED-NH2] (Ac-EDDSWIWWGPTGDED-NH2) | fold better affinity than 9 (comparator printed as 9): 3.8 fold
10 | 5.6 ± 0.7 nM | 5.6 ± 0.7 nM | – | CC[C@H](C)[C@H](NC(=O)[C@H](Cc1c[nH]c2ccccc12)NC(=O)[C@H](CO)NC(=O)[C@H](CC(=O)O)NC(=O)[C@H](CC(=O)O)NC(=O)[C@H](CCC(=O)O)NC(C)=O)C(=O)N[C@@H](CC(=O)O)C(=O)N[C@@H](Cc1c[nH]c2ccccc12)C(=O)NCC(=O)N1CCC[C@H]1C(=O)N[C@H](C(=O)NCC(=O)N[C@@H](CC(=O)O)C(=O)N[C@@H](CCC(=O)O)C(=O)N[C@@H](CC(=O)O)C(N)=O)[C@@H](C)O [Peptide 29, Ac-EDDSWIDWGPTGDED-NH2] (Ac-EDDSWIDWGPTGDED-NH2) | –
11 | 11 ± 0.1 nM | 11 ± 0.1 nM | – | CC[C@H](C)[C@H](NC(=O)[C@H](Cc1c[nH]c2ccccc12)NC(=O)[C@H](CO)NC(=O)[C@H](CC(=O)O)NC(=O)[C@H](CC(=O)O)NC(=O)[C@H](CCC(=O)O)NC(C)=O)C(=O)N[C@@H](CC(=O)O)C(=O)N[C@@H](Cc1c[nH]c2ccccc12)C(=O)N[C@@H](Cc1ccc(O)cc1)C(=O)NCC(=O)N[C@@H](C)C(=O)N[C@@H](CC(=O)O)C(=O)N[C@H](C(=O)N[C@@H](CC(=O)O)C(N)=O)[C@@H](C)O [Peptide 30] (Ac-EDDSWIDWYGADTD-NH2) | –
12 | 5.3 ± 0.2 nM | – | 5.3 ± 0.2 nM | CCOc1ccc(C[C@H](NC(=O)[C@H](CC(=O)O)NC(=O)[C@H](CC(=O)O)NC(=O)[C@H](CC(=O)O)NC(=O)[C@H](CCC(=O)O)NC(C)=O)C(=O)N[C@H](C(=O)N[C@@H](CC(=O)O)C(=O)N[C@@H](Cc2c[nH]c3ccccc23)C(=O)N[C@@H](Cc2ccc(O)cc2)C(=O)N[C@@H](CC(=O)O)C(=O)N[C@@H](CO)C(=O)N[C@@H](CC(=O)O)C(=O)N[C@@H](CC(=O)O)C(=O)N[C@@H](CC(=O)O)C(N)=O)[C@@H](C)CC)cc1 [Peptide 32] | –
